Source: publication PMC6270304, “Synthesis, Structure and Cytotoxic Activity of New Acetylenic Derivatives of Betulin” (Molecules, 2013)
≈ marks a conversion by molar mass, not a printed value.

What was measured:
[1] = tested on: T47D (human breast cancer); test: Antiproliferative assay in vitro (SRB); assay type: cell-based; conditions: for IC50: Homo sapiens, T47D, read-out: Cytotoxic activity IC50, Human T47D
Method: (§1) Cytotoxic activities of all newly synthesized compounds including betulin (1) were tested in SRB or MTT (in the case of leukemia cells) assay for their antiproliferative activity in vitro against three human cancer cell lines: SW707 (colorectal adenocarcinoma), CCRF/CEM (leukemia), T47D (breast cancer), and murine leukemia P388 as well as Balb3T3 normal fibroblasts cell lines. […] A value of less than 4 μg/mL was considered as an antiproliferative activity criterion for synthetic compounds [31].
(§2) The following established in vitro cell lines were applied: SW707 (human colorectal adenocarcinoma), CCRF/CEM (human leukemia), T47D (human breast cancer), P388 (mouse leukemia) and Balb3T3 (normal mouse fibroblasts). All lines were obtained from the American Type Culture Collection (Rockville, MD, USA) and maintained at the Cell Culture Collection of the Institute of Immunology and Experimental Therapy (Wroclaw, Poland).
(§3) Twenty-four hours before addition of the tested agents, the cells were plated in 96-well plates (Sarstedt, Numbrecht, Germany) at a density of 10^4 cells per well in 100 μL of culture medium. The cells were cultured in the opti-MEM medium supplemented with 2 mM glutamine (Gibco, Grand Island, NY, USA), streptomycin (50 μg/mL), penicillin (50 U/mL) (both antibiotics from Polfa, Tarchomin, Poland) and 5% fetal calf serum (Gibco). The cell cultures were maintained at 37 °C in humid atmosphere saturated with 5% CO2.
(§4) The compounds were dissolved in DMSO and culture medium (1:9) to the concentration of 1 mg/mL, and subsequently diluted in culture medium to reach the required concentrations (ranging from […]).
(§5) The in vitro cytotoxic effect of all agents was examined using the SRB assay for adherent cells and MTT assay for leukemia cells as described by Wietrzyk et al.. Each compound in given concentration was tested in triplicates in each experiment, which was repeated 3–5 times.

[2] = tested on: SW707 (human colorectal adenocarcinoma); test: Antiproliferative assay in vitro (SRB); assay type: cell-based; conditions: for IC50: Homo sapiens, SW707, read-out: Cytotoxic activity IC50, Human SW707
Method: as §1, §2, §3, §4, §5

[3] = tested on: Balb3T3 (normal mouse fibroblasts); test: Antiproliferative assay in vitro (SRB); assay type: cell-based
Method: as §1, §2, §3, §4, §5

P388 (mouse leukemia) = test: Antiproliferative assay in vitro (MTT); assay type: cell-based; conditions: for IC50: Mus musculus, P388, read-out: Cytotoxic activity IC50, Murine P388
Method: as §1, §2, §3, §4, §5

[4] = tested on: CCRF/CEM (human leukemia); test: Antiproliferative assay in vitro (MTT); assay type: cell-based; conditions: for IC50: Homo sapiens, CCRF-CEM, read-out: Cytotoxic activity IC50, Human CCRF/CEM
Method: as §1, §2, §3, §4, §5

[5] = tested on: investigated cancer cell lines (T47D, CCRF/CEM, SW707, P388, Balb3T3); test: cells; assay type: cell-based, human and murine
Method: as §1, §2, §3, §4, §5

Structure (SMILES) | IC50 [1] [µg/mL] | IC50 [2] [µg/mL] | Cytotoxic activity IC50, Murine Balb3T3 [3] | IC50 (P388 (mouse leukemia)) [µg/mL] | Cytotoxic activity IC50, Human CCRF/CEM [4] | melting point [°C] | IC50 [4] [µg/mL] | Cytotoxic activity IC50, Human T47D [1] | Cytotoxic activity IC50, Human SW707 [2] | Cytotoxic activity IC50, Murine P388 (P388 (mouse leukemia)) | cytotoxic activity in words [5] | ID50 value against human leukemia (CCRF/CEM) cell line ([4]; CCRF/CEM, abstract wording) [µg/mL] | selectivity index (SI) ([4]; ratio IC50 of normal fibroblast (Balb3T3) / IC50 on CCRF/CEM) | cytotoxicity relative to betulin (1) [5]
C=C(C)C1CC[C@]2(COC(=O)CC)CC[C@]3(C)C(CCC4[C@@]5(C)CC[C@H](OC(=O)CC)C(C)(C)C5CC[C@]43C)C12 (stereo partly shown) [Compound 6c, 3,28-O,O'-Dipropanoylbetulin] | 26.6 ± 6.8 (≈ 47.9 µM) | 42.3 ± 9.4 (≈ 76.2 µM) | Neg | 68.1 ± 14.8 (≈ 123 µM) | Neg | 142 to 144 | – | – | – | – | – | – | – | –
C=C(C)C1CC[C@]2(COC(=O)OCC)CC[C@]3(C)C(CCC4[C@@]5(C)CC[C@H](O)C(C)(C)C5CC[C@]43C)C12 (stereo partly shown) [Compound 3d, 28-O-Ethoxycarbonylbetulin] | 6.6 ± 1.3 (≈ 12.8 µM) | 20.8 ± 14.7 (≈ 40.4 µM) | – | 3.8 ± 1.9 (≈ 7.38 µM) | – | 94 to 96 | 4.1 ± 0.2 (≈ 7.96 µM) | – | – | – | – | – | – | –
C#CCOC(=O)O[C@H]1CC[C@@]2(C)C(CC[C@]3(C)C2CCC2C4C(C(=C)C)CC[C@]4(COC(C)=O)CC[C@]23C)C1(C)C (stereo partly shown) [Compound 8a, 28-O-Acetyl-3-O'-propargyloxycarbonylbetulin] | – | – | Neg | – | Neg | 188 to 189 | – | Neg | Neg | Neg | – | – | – | –
C=C(C)C1CC[C@]2(COC(=O)CC)CC[C@]3(C)C(CCC4[C@@]5(C)CC[C@H](O)C(C)(C)C5CC[C@]43C)C12 (stereo partly shown) [Compound 5c, 28-O-Propanoylbetulin] | 12.1 ± 4.4 (≈ 24.3 µM) | 29.2 ± 24.4 (≈ 58.5 µM) | – | 3.3 ± 0.8 (≈ 6.62 µM) | – | 160 to 162 | 8.1 ± 0.9 (≈ 16.2 µM) | – | – | – | – | – | – | –
C=C(C)C1CC[C@]2(COC(=O)C#Cc3ccccc3)CC[C@]3(C)C(CCC4[C@@]5(C)CC[C@H](O)C(C)(C)C5CC[C@]43C)C12 (stereo partly shown) [Compound 5b, 28-O-Phenylpropynoylbetulin] | – | – | Neg | – | – | 204 to 206 | 49 ± 9.8 (≈ 85.8 µM) | Neg | Neg | Neg | inactive | – | – | –
C=C(C)C1CC[C@]2(COC(C)=O)CC[C@]3(C)C(CCC4[C@@]5(C)CC[C@H](OC(=O)OCC#CC)C(C)(C)C5CC[C@]43C)C12 (stereo partly shown) [Compound 8c, 28-O-Acetyl-3-O'-(2-butynyloxycarbonyl)betulin] | – | – | Neg | – | Neg | 126 to 129 | – | Neg | Neg | Neg | – | – | – | –
C#CC(=O)OCC12CCC(C(=C)C)C1C1CCC3C4(C)CCC(O)C(C)(C)C4CCC3(C)C1(C)CC2 (stereo not shown) [Compound 5a, 28-O-Propynoylbetulin] | 9.1 ± 1.9 (≈ 18.4 µM) | 14.9 ± 3.3 (≈ 30.1 µM) | – | 0.4 ± 0.1 (≈ 0.808 µM) | – | – | 0.02 ± 0.001 (≈ 0.0404 µM) | – | – | – | – | 0.02 (≈ 0.0404 µM) | 15 | –
C=C(C)C1CC[C@]2(COC(=O)OCC)CC[C@]3(C)C(CCC4[C@@]5(C)CC[C@H](OC(=O)OCC)C(C)(C)C5CC[C@]43C)C12 (stereo partly shown) [Compound 4d, 3,28-O,O'-Di(ethoxycarbonyl)betulin] | 69.1 ± 12.4 (≈ 118 µM) | – | Neg | 46.8 ± 21.6 (≈ 79.7 µM) | – | 84 to 86 | 52.6 ± 8.3 (≈ 89.6 µM) | – | Neg | – | – | – | – | –
C#CCOC(=O)OC[C@]12CCC(C(=C)C)C1C1CCC3[C@@]4(C)CC[C@H](O)C(C)(C)C4CC[C@@]3(C)[C@]1(C)CC2 (stereo partly shown) [Compound 3a, 28-O-Propargyloxycarbonylbetulin] | 7.2 ± 1.7 (≈ 13.7 µM) | 9.2 ± 7.1 (≈ 17.5 µM) | – | 2.9 ± 0.2 (≈ 5.53 µM) | – | – | 3.2 ± 0.4 (≈ 6.1 µM) | – | – | – | – | – | – | three to four times more cytotoxic than betulin
C#CCOC(=O)OC[C@]12CCC(C(=C)C)C1C1CCC3[C@@]4(C)CC[C@H](OC(=O)OCC#C)C(C)(C)C4CC[C@@]3(C)[C@]1(C)CC2 (stereo partly shown) [Compound 4a, 3,28-O,O'-Di(propargyloxycarbonyl)betulin] | – | – | Neg | 33.4 ± 1.7 (≈ 55 µM) | Neg | 125 to 127 | – | Neg | Neg | – | – | – | – | –
